Consider five compounds from patent publication US11309064B2, “Individualized dosing technique with multiple variables” (priority 2017, dated 2022).

Data set [1] relates to INR. Kind of data set: INR lab value at clinic visits under Warfarin (Example 4). It counts as in vivo, patient.
Data set [2] relates to INR. The experiment in a line: Software readout, predicted INR for a Warfarin dose (Example 5). More on the design: species or system patient. As to conditions: 5 mg by mouth every 24 hours. The text has this:
The nurse takes their INR lab value and enters it into a software program. The health care provider has the software open on a computer or a hand held device. Then the provider asks the patient the relevant questions, does a physical exam and inputs this into the electronic form.

Data set [3] deals with patients with nonvalvular AF. To be noted: long-term anticoagulation therapy; cited from earlier work.
In data set [4] the test system is INR. The experiment in a line: INR and individual INR/Warfarin dose equation (Examples 7 and 8).
For the next data set, the system named is plasma proteins. As to conditions: cited from earlier work.
In a further data set the test system is blood glucose. The experiment in a line: Software readout, predicted blood glucose for an insulin dose (Example 6). More on the design: species or system patient. To be noted: 100 units Subcutaneous every 24 hrs. The text has this: A diabetes patient tells the health care provider their average daily blood glucose value. A health care provider can do this over a phone or via the Internet. A physical exam, review of biological systems, and medicine reconciliation is done and the information is put into software program. Then, for example, the software may have readout of “Given the data collected, the dose of 100 units of insulin Subcutaneous every 24 hrs will result in blood glucose of between 90-150 with a 50%-90% possibility if compliant with medications and no other variables change.”

Turning to `CC(=O)CC(c1ccccc1)c1c(O)c2ccccc2oc1=O` (racemic) [Warfarin], the INR with INR [1] (1 month later on 5 mg Warfarin, Lasix 40 mg every 24 hours, over 3 glasses of wine last evening) is listed as 4.3; in the data set with INR [1] (1 week on 7 mg Warfarin by mouth everyday, with HCTZ 25 mg, Doxycycline 100 mg every 12 hours, some aspirin), 3.4; in the data set with INR [1] (2 weeks after restart at 5 mg Warfarin, Lasix 60 mg a day, 73 kg, antidepressant), 2.3; in the data set with INR [1] (2 weeks on 5 mg Warfarin every day, HCTZ 25 mg only), 2.5; in the data set with INR [4] (Lasix 30 mg/day and Warfarin 7.5 mg/day) it was ~3; with INR [4] (Warfarin 7.5 mg, 1 week after start of amoxicillin 500 mg / clavulanate 250 mg 3 times a day) it was 2.5. The INR in the data set on INR [4] (Warfarin 7.5 mg, next office visit after amoxicillin/clavulanate) was determined as 6; in the data set with INR [4] (a week later again), 9; in the data set with INR [4] (after Warfarin stopped, blood transfusion and a dose of Vitamin K), 3.5. For the same compound, the “predicted INR” value with INR [2] was 2-3. The “reduction of the risk for ischemic stroke” value in data set [3] was “approximately 68%”. Besides, the “observed INR” value in the data set with INR [4] (after Lasix increased to 60 mg/day, Warfarin dose from earlier formula) is on record as 4-5.

For the compound `CC/C(=C(\c1ccccc1)c1ccc(OCCN(C)C)cc1)c1ccccc1` [Tamoxifen], the protein binding entry with plasma proteins is “Tamoxifen and Warfarin are highly protein bound. Tamoxifen”.

As to `COc1cc([C@@H]2c3cc4c(cc3[C@@H](O[C@@H]3O[C@@H]5CO[C@@H](C)O[C@H]5[C@H](O)[C@H]3O)[C@H]3COC(=O)[C@H]23)OCO4)cc(OC)c1O` [etoposide], in the data set with plasma proteins, the protein binding entry is “Highly protein bound. Interacts with other protein-bound drugs”.

Take `CC(=O)O[C@H]1C(=O)[C@@]2(C)[C@H]([C@H](OC(=O)c3ccccc3)[C@]3(O)C[C@H](OC(=O)[C@H](O)[C@@H](NC(=O)c4ccccc4)c4ccccc4)C(C)=C1C3(C)C)[C@]1(OC(C)=O)CO[C@@H]1C[C@@H]2O` [paclitaxel]: the protein binding result with plasma proteins is “Highly protein bound. Interacts with other protein-bound drugs”.

Turning to insulin, in the data set with blood glucose, the predicted blood glucose is 90-150.
